This note sets out measurements from ChEMBL document CHEMBL1201862, “PubChem BioAssay data set” (2004).

Common to all, as to assay: DTP human tumour cell line panel, 48 h
The subject of experiment [1] is BT-549.
The subject of experiment [2] is OVCAR-5.
Experiment [3] has as its system UACC-257.
Experiment [4] relates to SF-295.
The subject of experiment [5] is PC-3.
For experiment [6], the system named is RPMI-8226.
Experiment [7] deals with SW-620.
The subject of experiment [8] is COLO 205.
The test system of experiment [9] is UO-31.
The subject of experiment [10] is TK-10.
In experiment [11] the test system is SK-MEL-2.
The test system of experiment [12] is RXF 393.
Experiment [13] concerns SF-539.
Experiment [14] relates to ACHN.
Experiment [15] deals with KM12.
For experiment [16], the system named is NCI-H460.
Experiment [17] has as its system MDA-MB-435.
For experiment [18], the system named is MDA-MB-231.
Experiment [19] deals with NCI/ADR-RES.
The test system of experiment [20] is NCI-H522.

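Results reflect a 48-hour exposure of cells in 96-well plates to compound at five concentrations. Here, GI50 denotes the concentration required for 50% inhibition of growth.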 The source made the active and inactive calls. Cut-off read from the data, not from the text of the source: active = GI50 up to about 1.1 µM and inactive = higher.

In the case of `COc1ccc(/C=C/C=C2C(=O)NC(=S)NC2=O)cc1`, the GI50 (usually the concentration giving 50% growth inhibition) in experiment [1] was 2.05 µM (inactive); in [2] it was 21 µM (inactive); in [3], 9.62 µM (inactive); in experiment [4], 16.2 µM (inactive); in experiment [5], 12.6 µM (inactive); in experiment [6], 4.91 µM (inactive). The GI50 in experiment [7] was 1.78 µM (inactive); in [8], 3.83 µM (inactive); in [9] it was 7.45 µM (inactive); in [10], 2.52 µM (inactive); in experiment [11], 16.1 µM (inactive); in experiment [12] it was 4.35 µM (inactive). Besides, the GI50 is 4.41 µM (inactive) in [13]; 5.08 µM (inactive) in experiment [14]; 8.79 µM (inactive) in experiment [15]; 12.5 µM (inactive) in [16]; 2.59 µM (inactive) in experiment [17]; 2.11 µM (inactive) in [18]. Moreover, in experiment [19], the GI50 was 3.3 µM (inactive).

Consider `Cc1ccc(S(=O)(=O)OC2CC(C(C)(C)C)CCC2c2ccccc2)cc1` (centres undefined), for which the GI50 in experiment [1] is > 100 µM (inactive); in experiment [2], > 100 µM (inactive); in experiment [3], 29 µM (inactive); in experiment [4], 42.1 µM (inactive); in [5], 70 µM (inactive); in [6] it was 17.9 µM (inactive). The GI50 is > 100 µM (inactive) in experiment [7]; > 100 µM (inactive) in experiment [8]; > 100 µM (inactive) in [9]; > 100 µM (inactive) in experiment [10]; > 100 µM (inactive) in experiment [11]; 89.7 µM (inactive) in experiment [12]. In addition, the GI50 is > 100 µM (inactive) in [13]; 54.6 µM (inactive) in experiment [14]; 99.8 µM (inactive) in experiment [15]; 78.7 µM (inactive) in [16]; 66.1 µM (inactive) in experiment [17]; > 100 µM (inactive) in experiment [18]. Moreover, the GI50 in [19] was > 100 µM (inactive).

In the case of `Cc1ccc(/C=C2\N=C(N3CCOCC3)NC2=O)cc1`, the GI50 in experiment [1], in experiment [2], in [3], in experiment [4], in experiment [5] and in [6] was > 100 µM (inactive) each time. In addition, the GI50 in [7], in experiment [20], in [8], in experiment [9], in experiment [10] and in [11] was > 100 µM (inactive) in each case. In addition, the GI50 in [12], in experiment [13], in experiment [14], in [15], in experiment [17] and in experiment [18] was > 100 µM (inactive) throughout. Also, the GI50 in experiment [19] was > 100 µM (inactive).

For the compound `CCOC(=O)/C(C(=O)c1ccc[nH]1)=C1/CCCN1C`, the GI50 in experiment [1], in experiment [2], in [3], in experiment [4], in [5] and in [6] was > 100 µM (inactive) throughout. Moreover, the GI50 in [7], in experiment [8], in [9], in experiment [10], in experiment [11] and in experiment [12] was > 100 µM (inactive) each time. Besides, the GI50 in experiment [13], in experiment [14], in experiment [15], in [16], in [17] and in [18] was > 100 µM (inactive) each time. In experiment [19], the GI50 is > 100 µM (inactive).

Consider `O=[N+]([O-])c1cc2c([N+](=O)[O-])cccc2o1`, for which the GI50 in [1] was 15.7 µM (inactive); in experiment [3], 6.93 µM (inactive); in experiment [4], 22.9 µM (inactive); in experiment [5], 12.4 µM (inactive); in experiment [6], 2.85 µM (inactive); in experiment [7], 2.86 µM (inactive). Besides, the GI50 is 0.479 µM (active) in experiment [20]; 4.57 µM (inactive) in [8]; 1.88 µM (inactive) in experiment [9]; 9.25 µM (inactive) in experiment [10]; 9.16 µM (inactive) in [11]; 5.51 µM (inactive) in experiment [12]. For the same compound, the GI50 in experiment [13] is 2.49 µM (inactive); in experiment [14], 3.34 µM (inactive); in [15], 15.2 µM (inactive); in experiment [16], > 100 µM (inactive); in [17], 18 µM (inactive); in experiment [18], 12.3 µM (inactive). The GI50 in experiment [19] is 14.3 µM (inactive).

For `CCN(C(=O)/C=C/c1ccco1)c1ccccc1`, the GI50 in [1] is > 100 µM (inactive); in experiment [2], > 100 µM (inactive); in experiment [3] it was > 100 µM (inactive); in experiment [4] it was > 100 µM (inactive); in experiment [5] it was > 100 µM (inactive); in experiment [6] it was 75.2 µM (inactive). In addition, the GI50 in experiment [7], in [20], in experiment [8], in experiment [9], in [10] and in experiment [11] was > 100 µM (inactive) each time. Moreover, the GI50 in [12], in experiment [14], in experiment [15], in experiment [16], in experiment [17] and in experiment [18] was > 100 µM (inactive) throughout. In [19], the GI50 was > 100 µM (inactive).

With `CCOC(=O)[C@@]1(C(C)=O)CC(C)=C(C)C[S@@+]1[O-]`, the GI50 in [1], in experiment [2], in experiment [3], in [4], in [5] and in [6] was > 100 µM (inactive) each time. Also, the GI50 in experiment [7], in experiment [20], in experiment [8], in experiment [9], in experiment [10] and in experiment [11] was > 100 µM (inactive) in each case. The GI50 in experiment [12], in experiment [14], in experiment [15], in experiment [16], in experiment [17] and in [18] was > 100 µM (inactive) throughout. The GI50 in experiment [19] was > 100 µM (inactive).

`Cc1cn([C@H]2C[C@](C)(CO)N(C)O2)c(=O)[nH]c1=O`: the GI50 in experiment [1], in experiment [2], in [3], in [4], in experiment [5] and in [6] was > 100 µM (inactive) throughout. The GI50 in [7], in experiment [20], in experiment [8], in experiment [9], in experiment [10] and in experiment [11] was > 100 µM (inactive) throughout. Further, the GI50 in [12], in experiment [14], in experiment [15], in experiment [16], in [17] and in experiment [18] was > 100 µM (inactive) in each case. The GI50 in experiment [19] is > 100 µM (inactive).

Consider `CC[C@]1(Cc2ccc(OC)c(OC)c2)C=[N+]([O-])O[C@H](OC2CCCC2(c2ccccc2)c2ccccc2)[C@@H]1OC(=O)c1ccccc1` (some centres undefined), for which the GI50 in experiment [1] is > 27.1 µM (inactive); in experiment [2], 22.3 µM (inactive); in experiment [3] it was 14 µM (inactive); in [4] it was 14.1 µM (inactive); in experiment [5], 5.47 µM (inactive); in [7], 8.87 µM (inactive). For the same compound, the GI50 in [20] is 3.87 µM (inactive); in experiment [8], 8.79 µM (inactive); in [9], 6.7 µM (inactive); in experiment [11] it was 8 µM (inactive); in experiment [12], 4.35 µM (inactive); in [13], > 100 µM (inactive). Further, the GI50 in experiment [14] is 7.83 µM (inactive); in experiment [15] it was 3.9 µM (inactive); in [16], 14.2 µM (inactive); in experiment [17], 3.73 µM (inactive); in [18], > 24.9 µM (inactive); in experiment [19] it was 4.73 µM (inactive).

`O=C1NC(N2CCCCC2)=N/C1=C\c1ccco1`: the GI50 in [1], in experiment [2], in [3], in experiment [4], in experiment [5] and in [6] was > 100 µM (inactive) throughout. For the same compound, the GI50 in experiment [7], in experiment [20], in experiment [8], in [9], in experiment [10] and in [11] was > 100 µM (inactive) throughout. Also, the GI50 in experiment [12], in experiment [13], in experiment [14], in [15], in [17] and in experiment [18] was > 100 µM (inactive) throughout. The GI50 in experiment [19] is > 100 µM (inactive).
